Laboratory results: the supplement of paper PMC10307832

The cell lines below were run with CCN1CCN(c2ccc(Nc3cc(N(C)C(=O)Nc4c(Cl)c(OC)cc(OC)c4Cl)ncn3)cc2)CC1 [BGJ398] + Cc1nc(NC(=O)N2CCC[C@H]2C(N)=O)sc1-c1ccnc(C(C)(C)C(F)(F)F)c1 [Alpelisib] (partner 2 µM) (assay: relative viability (nuclei count vs DMSO), 5 days (fraction); higher = more cells survive). Settings: first compound 0.01 µM.
Method in brief: (§1)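 Medians of duplicate plates are given as relative viability. That measure is the nuclei count in treated wells divided by the count in vehicle wells. Counts were taken on 4× images of lung cancer cell lines in 1536-well plates, 5 days after pin-tool dosing the day after seeding with one drug alone or a fixed anchor-drug dose plus five library-drug doses (not always all listed) in √10 steps.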

Cell Line	relative viability
NCI-H727	0.625
EBC-1	0.806
NCI-H1703	0.331
NCI-H1993	0.689
SW 1573	0.689
NCI-H838	0.84
LCLC-103H	1.03
NCI-H520	0.888
NCI-H2126	0.78
EMC-BAC-2	0.727
NCI-H2085	0.96
Calu-6	0.861
HCC-366	0.417
NCI-H1666	1.01
NCI-H596	0.608
LK-2	0.813
NCI-H2087	0.99

Cell Line	relative viability
SK-MES-1	0.826
H3255	0.676
COR-L23	0.755
COR-L 105	0.919
IA-LM	0.541
LOU-NH91	0.727
NCI-H2170	0.815
HCC-44	0.8
A549	0.782
NCI-H2009	1.13
NCI-H661	0.594
SK-LU-1	0.939
NCI-H1299	0.999
NCI-H2228	0.609
NCI-H1792	0.634
NCI-H2023	0.576
NCI-H1563	0.858

Same assay, conditions: first compound 0.03162 µM

Cell Line	relative viability
NCI-H727	0.665
EBC-1	0.85
NCI-H1703	0.394
NCI-H1993	0.623
SW 1573	0.961
NCI-H838	0.955
LCLC-103H	0.954
NCI-H520	0.886
NCI-H2126	0.746
EMC-BAC-2	0.77
NCI-H2085	1.01
Calu-6	1.01
HCC-366	0.478
NCI-H1666	1.08
NCI-H596	0.442
LK-2	0.936
NCI-H2087	1.17

Cell Line	relative viability
SK-MES-1	1
COR-L23	0.872
COR-L 105	0.956
IA-LM	0.898
LOU-NH91	0.531
NCI-H2170	0.756
HCC-44	0.761
A549	0.864
NCI-H2009	1.19
NCI-H661	1.08
SK-LU-1	0.885
NCI-H1299	1.07
NCI-H2228	0.616
NCI-H1792	0.755
NCI-H2023	0.644
NCI-H1563	0.96

Same assay, conditions: first compound 0.1 µM

Cell Line	relative viability
NCI-H727	0.524
EBC-1	0.917
NCI-H1703	0.348
NCI-H1993	0.642
SW 1573	0.765
NCI-H838	0.968
LCLC-103H	0.991
NCI-H520	0.506
NCI-H2126	0.735
EMC-BAC-2	0.786
NCI-H2085	0.93
Calu-6	0.984
HCC-366	0.676
NCI-H1666	1.01
NCI-H596	0.506
LK-2	0.557
NCI-H2087	1.05

Cell Line	relative viability
SK-MES-1	0.815
H3255	0.747
COR-L23	0.686
COR-L 105	0.979
IA-LM	0.733
LOU-NH91	0.717
NCI-H2170	0.938
HCC-44	0.763
A549	0.847
NCI-H2009	1.11
NCI-H661	0.715
SK-LU-1	1.02
NCI-H1299	1
NCI-H2228	0.776
NCI-H1792	0.898
NCI-H2023	0.534
NCI-H1563	0.802

Same assay, conditions: first compound 0.3162 µM

Cell Line	relative viability
NCI-H727	0.578
EBC-1	0.812
NCI-H1703	0.332
NCI-H1993	0.746
SW 1573	0.761
NCI-H838	0.895
LCLC-103H	0.975
NCI-H520	0.414
NCI-H2126	0.766
EMC-BAC-2	0.787
NCI-H2085	0.975
Calu-6	0.999
HCC-366	0.404
NCI-H1666	0.922
NCI-H596	0.441
LK-2	0.381
NCI-H2087	1.19

Cell Line	relative viability
SK-MES-1	0.866
H3255	0.37
COR-L23	0.843
COR-L 105	1.05
IA-LM	0.625
LOU-NH91	0.491
NCI-H2170	0.734
HCC-44	0.856
A549	0.635
NCI-H2009	1.17
NCI-H661	0.526
SK-LU-1	0.971
NCI-H1299	1.05
NCI-H2228	0.718
NCI-H1792	0.706
NCI-H2023	0.586
NCI-H1563	0.778

Same assay, conditions: first compound 1 µM

Cell Line	relative viability
NCI-H727	0.5
EBC-1	0.884
NCI-H1703	0.359
NCI-H1993	0.7
SW 1573	0.789
NCI-H838	0.732
LCLC-103H	0.778
NCI-H520	0.243
NCI-H2126	0.853
EMC-BAC-2	0.738
NCI-H2085	0.921
Calu-6	0.944
HCC-366	0.348
NCI-H1666	0.909
NCI-H596	0.561
LK-2	0.311
NCI-H2087	1.18

Cell Line	relative viability
SK-MES-1	0.57
H3255	0.792
COR-L23	0.824
COR-L 105	1.06
IA-LM	0.702
LOU-NH91	0.697
NCI-H2170	0.853
HCC-44	0.815
A549	0.872
NCI-H2009	1.09
NCI-H661	0.614
SK-LU-1	0.796
NCI-H1299	1.08
NCI-H2228	0.696
NCI-H1792	0.456
NCI-H2023	0.579
NCI-H1563	0.677

The cell lines below were run with C1=CC2=NC=CN=C2C=C1/C=C/3\C(=O)NC(=O)S3 + Cc1cc(Nc2cc(N3CCN(C)CC3)nc(Sc3ccc(NC(=O)C4CC4)cc3)n2)n[nH]1 [Tozasertib] (partner 0.1 µM) in the same assay as above. Settings: first compound 0.02 µM.
Method in brief: as §1

Cell Line	relative viability
NCI-H522	0.64
NCI-H1623	0.405
NCI-H727	0.676
NCI-H1650	0.434
NCI-H1993	0.545
SW 1573	0.192
NCI-H838	0.299
LCLC-103H	0.563
NCI-H520	0.394
NCI-H2126	0.841
EMC-BAC-2	0.276
NCI-H2085	0.813
HCC-366	0.114
NCI-H1666	0.591
NCI-H596	0.934
LK-2	0.174
NCI-H2087	0.206

Cell Line	relative viability
NCI-H2342	0.438
SK-MES-1	0.894
H3255	0.575
COR-L23	0.168
COR-L 105	0.311
LOU-NH91	0.619
ChaGo-K-1	0.243
NCI-H2170	0.6
HCC-44	0.896
SW 900	0.453
NCI-H1648	0.408
NCI-H2009	0.747
NCI-H661	0.389
SK-LU-1	0.367
NCI-H2228	0.302
NCI-H2023	0.404

Same assay, conditions: first compound 0.06325 µM

Cell Line	relative viability
NCI-H522	0.504
NCI-H1623	0.413
NCI-H727	0.703
NCI-H1650	0.446
NCI-H1993	0.593
SW 1573	0.201
NCI-H838	0.271
LCLC-103H	0.424
NCI-H520	0.378
NCI-H2126	0.882
EMC-BAC-2	0.253
NCI-H2085	0.874
NCI-H1666	0.617
NCI-H596	0.951
LK-2	0.189
NCI-H2087	0.273

Cell Line	relative viability
NCI-H2342	0.561
SK-MES-1	0.884
H3255	0.644
COR-L23	0.218
COR-L 105	0.369
LOU-NH91	0.739
ChaGo-K-1	0.215
NCI-H2170	0.697
HCC-44	0.875
SW 900	0.607
NCI-H2009	0.77
NCI-H661	0.368
SK-LU-1	0.297
NCI-H2228	0.228
NCI-H2023	0.321

Same assay, conditions: first compound 0.2 µM

Cell Line	relative viability
NCI-H522	0.641
NCI-H1623	0.473
NCI-H727	0.736
NCI-H1650	0.459
NCI-H1993	0.612
SW 1573	0.183
NCI-H838	0.221
LCLC-103H	0.45
NCI-H520	0.451
NCI-H2126	0.857
EMC-BAC-2	0.368
NCI-H2085	0.848
HCC-366	0.135
NCI-H1666	0.575
NCI-H596	1.1
LK-2	0.159
NCI-H2087	0.212

Cell Line	relative viability
NCI-H2342	0.688
SK-MES-1	0.998
H3255	0.55
COR-L23	0.19
COR-L 105	0.343
LOU-NH91	0.634
ChaGo-K-1	0.248
NCI-H2170	0.689
HCC-44	0.947
SW 900	0.702
NCI-H1648	0.629
NCI-H2009	0.721
NCI-H661	0.352
SK-LU-1	0.381
NCI-H2228	0.234
NCI-H2023	0.472

Same assay, conditions: first compound 0.6325 µM

Cell Line	relative viability
NCI-H522	0.542
NCI-H1623	0.403
NCI-H727	0.569
NCI-H1650	0.375
NCI-H1993	0.543
SW 1573	0.183
NCI-H838	0.238
LCLC-103H	0.52
NCI-H520	0.416
NCI-H2126	0.759
EMC-BAC-2	0.243
NCI-H2085	0.848
HCC-366	0.108
NCI-H1666	0.674
NCI-H596	0.733
LK-2	0.191
NCI-H2087	0.243

Cell Line	relative viability
NCI-H2342	0.465
SK-MES-1	0.965
H3255	0.602
COR-L23	0.211
COR-L 105	0.349
LOU-NH91	0.63
ChaGo-K-1	0.232
NCI-H2170	0.734
HCC-44	0.874
SW 900	0.545
NCI-H1648	0.404
NCI-H2009	0.744
NCI-H661	0.335
SK-LU-1	0.357
NCI-H2228	0.21
NCI-H2023	0.379

Same assay, conditions: first compound 2 µM

Cell Line	relative viability
NCI-H522	0.549
NCI-H1623	0.38
NCI-H727	0.545
NCI-H1650	0.411
NCI-H1993	0.436
SW 1573	0.204
NCI-H838	0.242
LCLC-103H	0.456
NCI-H520	0.458
NCI-H2126	0.528
EMC-BAC-2	0.297
NCI-H2085	0.731
HCC-366	0.123
NCI-H1666	0.603
